Results taken from publication PMC11406516, “The Tuberculosis Drug Candidate SQ109 and Its Analogs Have Multistage Activity against Plasmodium falciparum” (ACS Infectious Diseases, 2024).
Values after ≈ are worked out from the molar mass of the structure shown. Read-outs that look alike come from different tables or passages of the source. Marks after values point to notes of the source that are not given here.

Columns and labels:
[1] = system: PfNF54 LGc (stage IV/V gametocytes); assay: PrestoBlue late-stage gametocyte viability assay; assay type: cell-based, Plasmodium falciparum; conditions: Plasmodium falciparum, read-out: PfNF54 LGc IC50
Protocol: Gametocytogenesis was induced on highly synchronized (>95%) asexual ring-stage parasites from PfNF54 at 0.5% parasitemia and 6% hematocrit and thereafter maintained in glucose-deprived media as previously described.[29],[15] After 3 days, the hematocrit was decreased to 4%. Parasites were maintained in complete culture media supplemented with 50 mM N-acetyl-glucosamine 5–10 days post induction to inhibit proliferation of residual asexual blood stages. Gametocyte progression and morphology was also monitored microscopically using Giemsa-stained thin smears.
activity against the sexual stages of P. falciparum was evaluated using the PrestoBlue fluorescence assay as previously described.[4] Activity was measured on PfNF54 stage IV/V gametocytes (2% gametocytemia, 5% hematocrit) previously seeded with compounds (in non-lethal DMSO) for 48 h drug pressure, after which PrestoBlue reagent was added and incubated for 2 h. Fluorescence was detected in the supernatant at 612 nm. Dihydroartemisinin (DHA) was used as a positive drug control.

male gametes (PfNF54) = assay: Male gamete exflagellation inhibition assay (EIA); assay type: cell-based; conditions: Plasmodium falciparum; 2 μM, 48 h; read-out: male gamete inhibition %
Protocol: The EIA was performed using video microscopy by capturing the movement of exflagellation centers over time as previously described.[4],[30] Mature PfNF54 stage V gametocytes (>95%;) were treated with 2 μM of drug for 48 h before the activation of exflagellation, without removing drug pressure. Movement was semi-automatically quantified from 15 videos of 8–10 s each between 15 and 22.5 min after incubation. Each video was analyzed using ICY-bio image analysis software.

female gametes = assay: Female gamete inhibition assay; assay type: cell-based, Plasmodium falciparum; design: concentration or dose not given beside the values
Protocol: Similarly, female gametes were activated as described previously.[31] Monoclonal anti-Pfs antibody conjugated to FITC was used to detect female gametes. Image acquisition was performed using a Zeiss Axio Lab.A1 epifluorescence microscope with a 100/1.4 numerical aperture (NA) oil immersion. Thirty images were captured per sample and analyzed manually.

oocyst formation = assay: Standard membrane feeding assay (SMFA), oocyst formation in Anopheles coluzzii; assay type: in vivo; conditions: Plasmodium falciparum, 48 h drug treatment at 2 μM, single biological repeat
Protocol: Transmission-blocking activity was confirmed in the standard membrane feeding assay (SMFA), by determining transmission-reducing activity (TRA; reduction in oocyst counts) and transmission-blocking activity (TBA, reduction in oocyst prevalence), 8–10 days after feeding female mosquitoes on gametocyte-infected blood, treated with selected compounds (at 2 μM).
SMFA was performed using glass feeders as is outlined.[4],[16] Once again, mature stage V gametocytes (>95%) were treated with 2 μM of each compound for 48 h prior to feeding. Anopheles coluzzii females were allowed to feed on gametocyte cultures (1.5–2.5% gametocytemia, 50% hematocrit in A+ male serum with fresh erythrocytes) in the dark for 40 min. All unfed or partially fed mosquitoes were removed, and remaining females housed for 8–10 days. Mosquitoes were dissected to remove midguts, and oocysts counted under bright field illumination at ×20–×40 magnification. The percentage of block in transmission (transmission-blocking activity; TBA) and the percentage of reduction in the number of oocysts (transmission-reducing activity; TRA) were calculated after normalizing to the control untreated sample.

PfNF54 ABS [2] = system: PfNF54 ABS; design: method as in Stampolaki et al.[5]; conditions: drug-sensitive NF54; ref Stampolaki et al.[5]; read-out: Pf ABS IC50 NF54; cited from earlier work
HepG2 cells [3] = assay: HepG2 cytotoxicity, LDH release assay; conditions: Homo sapiens, HepG2, 24 h, read-out: HepG2 EC50
Protocol: (§1) Furthermore, compounds were evaluated against late (stage IV/V) gametocytes from PfNF54 (PfNF54 LGc), with viability detected with PrestoBlue,[15] and orthogonally evaluated for toxicity against a human hepatocellular carcinoma line, HepG2.[16]
(§2) Human hepatocellular liver carcinoma cells (HepG2) were cultivated in vitro in Dulbecco’s Modified Eagle’s Medium (DMEM) supplemented with 10% (v/v) heat inactivated fetal bovine serum and 1% (v/v) penicillin/streptomycin.[14] Cells were detached with trypsin treatment at 80% confluency and were seeded in 96-well plates to adhere for 24 h under 5% CO2, humid (95%) conditions. Cells were subsequently exposed to drug pressure for 24 h and cytotoxicity was then determined using the lactate dehydrogenase (LDH) release assay through the colorimetric detection at 450 nm, as previously outlined.[4],[16]

PfK1 = assay: SYBR Green I proliferation assay, asexual blood stages, multidrug-resistant K1; conditions: Plasmodium falciparum, K1, read-out: Pf ABS IC50 K1
Protocol: (§3) P. falciparum asexual parasites were cultured from drug-sensitive NF54 (PfNF54) and multidrug resistant strains PfK1. Parasites were maintained in human erythrocytes (O+, suspended at 5% hematocrit) in RPMI-1640 culture medium (23.81 mM sodium bicarbonate, 0.024 mg/mL gentamycin, 25 mM HEPES pH 7.5, 0.2% D-glucose, 0.2 mM hypoxanthine and Albumax II) under hypoxic conditions (5% CO2, 5% O2 and 90% N2) with moderate shaking (60 rpm) at 37 °C. Cultures were synchronized to >95% in the ring stage with 5% (w/v) D-sorbitol treatment.[28]
(§4) Activity against the asexual stage of P. falciparum was evaluated using the SYBR Green I-based fluorescence assay as previously described.[4],[16] Cellular proliferation was measured on synchronized in vitro PfNF54 ring-stage parasites (1% parasitemia, 2% hematocrit), following drug pressure for 96 h. Chloroquine was used as the positive drug control for complete inhibition of parasite proliferation.

[4] = HepG2 cytotoxicity, LDH release assay; conditions: human, HepG2 cells
Protocol: as §1, §2

PfNF54 ABS [5] = assay: SYBR Green I proliferation assay, asexual blood stages, drug-sensitive NF54; conditions: for IC50: Plasmodium falciparum, NF54, 96 h, read-out: Pf ABS IC50 NF54
Protocol: as §3, §4

HepG2 cells [6] = system: HepG2 cells; design: method as in Stampolaki et al.[5]; conditions: compound at 20 μM; ref Stampolaki et al.[5]; cited from earlier work
physchem = assay type: physicochemical; conditions: 37 °C, pH 6.5, aqueous buffer, thermodynamic from solid
Protocol: The stock solutions (10^–2 M) of the assayed compounds were diluted to decreased molarity, from 300 to 0.1 μM, in 384 well transparent plate (Greiner 781801) with 1% DMSO:99% PBS buffer. Then, they were incubated at 37 °C and the light scattering was measured after 2 h in a NEPHELOstar Plus (BMG LABTECH). The results were adjusted to a segmented regression to obtain the maximum concentration in which compounds are soluble.
The solubility of each product was evaluated using an HPLC Agilent 1100 with a DAD detector. The samples were injected in an Agilent Poroshell 120 EC-C18, 2.7 μm, 50 mm × 4.6 mm column at 40 °C and 0.6 mL/min flow. The mobile phase was a mixture of A = water with 0.05% formic acid and B = acetonitrile with 0.05% formic acid. The procedure followed was from 95% A–5% B to 100% B in 3 min, 100% B in 3 min, from 100% B to 95% A–5% B in 1 min, 95% A–5% B in 3 min; the injection volume was set at 75 μL. […] The samples remained at these conditions between 12–24 h. Then, the samples were filtered through a 0.45 μm PVDF filter and either directly analyzed or diluted before analyzing. The obtained area under the curve was compared with the one from the standard solution.

in vitro = in vitro ADME; conditions: microsomes
Protocol: The microsomal stability assay used a single-point assay design (Di et al., 2004). Briefly, the compounds were incubated at 1 μM in human, rat, and mouse liver microsomes (0.4 mg/mL) for 30 min at 37 °C. Reactions were quenched by adding ice-cold acetonitrile containing internal standard (carbamazepine, 0.0236 μg/mL). The samples were then centrifuged, and the samples were analyzed by liquid chromatography with tandem mass spectrometry (LC-MS/MS) (Agilent Rapid Resolution HPLC, AB SCIEX 4500 MS) for the disappearance of the parent compound. Half-life, clearance and hepatic […] ratios were determined using standard equations.

[7] = stage IV/V gametocytes, 48 h drug pressure
[8] = read-out: oocyst formation (% inhibition) TBA
[9] = read-out: oocyst formation (% inhibition) TRA

## CCCCC1(NCCNC/C=C(\C)CCC=C(C)C)C2CC3CC(C2)CC1C3 (stereo not drawn) [Compound 3]
[1]; [7]
  IC50: 0.3 ± 0.03 µM
Male gametes (PfNF54)
  inhibition at 2 µM: 81.4 ± 8.64%
Female gametes
  female gamete inhibition %: 67.05 ± 0.39%
Oocyst formation; [8]
  inhibition at 2 µM: 36%
Oocyst formation; [9]
  inhibition at 2 µM: 11%
PfNF54 ABS [2]
  IC50: 0.27 ± 0.04 µM
HepG2 cells [3]
  EC50: 10.2 ± 1.7 µM
PfK1
  IC50: 0.13 ± 0.03 µM

## c1ccc(CNCCNC2C3CC4CC(C3)CC2C4)cc1 (stereo not drawn) [Compound 25]
[1]; [7]
  IC50: 0.11 ± 0.06 µM
[4]
  viability at 24 h, 20 µM: 91%
PfNF54 ABS [5]
  IC50: 3.99 ± 0.28 µM

## CC(C)=CCC/C(C)=C/CNC(=O)CNC1C2CC3CC(C2)CC1C3 (stereo not drawn) [Compound 18]
[1]; 48 h
  IC50: > 10 µM
HepG2 cells [6]
  HepG2 % viability: 99%^b

## CC(C)=CCC/C(C)=C/CNCCNC12CC3CC(CC(C3)C1)C2 [Compound 9]
[1]; [7]
  IC50: 0.7 ± 0.01 µM
Male gametes (PfNF54)
  inhibition at 2 µM: 96.7 ± 3.33%
Female gametes
  female gamete inhibition %: 90.50 ± 7.17%
Oocyst formation; [8]
  inhibition at 2 µM: 47%
Oocyst formation; [9]
  inhibition at 2 µM: 70%
HepG2 cells [3]
  EC50: 12.9 ± 1.4 µM
PfNF54 ABS [5]
  IC50: 0.99 ± 0.21 µM
PfK1
  IC50: 2.32 ± 0.55 µM

## CCC1(NCCNC/C=C(\C)CCC=C(C)C)C2CC3CC(C2)CC1C3 (stereo not drawn) [Compound 2]
[1]; [7]
  IC50: 0.58 ± 0.04 µM
physchem
  solubility: 840 µM (≈ 301 µg/mL)
Male gametes (PfNF54)
  inhibition at 2 µM: 95.5 ± 4.55%
Female gametes
  female gamete inhibition %: 78.88 ± 4.46%
PfNF54 ABS [2]
  IC50: 0.16 ± 0.07 µM
HepG2 cells [3]
  EC50: 5.21 ± 1.33 µM
PfNF54 ABS [5]; PfNF54 ABS
  fold improvement in ABS activity compared to 1: 10 fold
PfK1
  IC50: 0.1 ± 0.02 µM

## CC(C)=CCNCCNC1C2CC3CC(C2)CC1C3 (stereo not drawn) [Compound 26]
[1]; [7]
  IC50: 0.37 ± 0.06 µM
[4]
  viability at 24 h, 20 µM: 99%
PfNF54 ABS [5]
  IC50: 4.28 ± 0.36 µM

## CC(C)=CCC/C(C)=C/CNCCNCc1ccccc1 [Compound 12]
[1]; [7]
  IC50: 0.41 ± 0.2 µM
physchem
  solubility: 160 µM (≈ 45.8 µg/mL)
[4]
  viability at 24 h, 20 µM: 94%
PfNF54 ABS [5]
  IC50: 4.32 ± 0.6 µM

## CCCC1(NCCNC/C=C(\C)CCC=C(C)C)C2CC3CC(C2)CC1C3 (stereo not drawn) [Compound 6]
[1]; [7]
  IC50: 0.37 ± 0.02 µM
physchem
  solubility: 334 µM (≈ 124 µg/mL)
In vitro; human
  microsomal CLint at 1 µM: 322 µL/min/mg
In vitro; mouse
  microsomal CLint at 1 µM: 308 µL/min/mg
In vitro; rat
  microsomal CLint at 1 µM: 400 µL/min/mg
Male gametes (PfNF54)
  inhibition at 2 µM: 34.6 ± 14.3%
Female gametes
  female gamete inhibition %: 64.59 ± 12.33%
Oocyst formation; [8]
  inhibition at 2 µM: 67%
Oocyst formation; [9]
  inhibition at 2 µM: 53%
HepG2 cells [6]
  HepG2 % viability: 100^%c
PfNF54 ABS [5]
  IC50: 0.5 ± 0.14 µM
PfK1
  IC50: 1.33 ± 0.5 µM

## CC(C)=CCC/C(C)=C/CN(C)CCNC1C2CC3CC(C2)CC1C3 (stereo not drawn) [Compound 14]
[1]; [7]
  IC50: > 10 µM
[4]
  viability at 24 h, 20 µM: 100%
PfNF54 ABS [5]
  IC50: 1.09 ± 0.35 µM

## C1CCC(CCNCCNC2C3CC4CC(C3)CC2C4)CC1 (stereo not drawn) [Compound 24]
[1]; [7]
  IC50: > 10 µM
[4]
  viability at 24 h, 20 µM: 27%
PfNF54 ABS [5]
  IC50: 1.24 ± 0.08 µM
